{"source": "patent US20220289787A1", "about": "“DIMER COMBINATIONS AND USES THEREOF” (Ripple Therapeutics Corporation, priority 2019, published 2022)", "experiment": "Drug release from heat-molded pellets of Compound 1 in PBS at 37° C. (HPLC)", "assay_type": "physicochemical", "conditions": "FIG. 2", "procedure": "Heat-molded pellets from Compound 1 (^˜1 mm×1 mm) were placed in 20 mL glass vials and 2 mL of the release buffer phosphate buffered saline (PBS) was added."}
{"smiles": "C[C@@H]1C[C@H]2[C@@H]3CCC4=CC(=O)C=C[C@]4(C)[C@@]3(F)[C@@H](O)C[C@]2(C)[C@@]1(O)C(=O)COC(=O)OCCOCCOCCOC(=O)OCC(=O)[C@@]1(O)[C@H](C)C[C@H]2[C@@H]3CCC4=CC(=O)C=C[C@]4(C)[C@@]3(F)[C@@H](O)C[C@@]21C", "note": "[Compound 1, dexamethasone-triethylene glycol-dexamethasone]", "values": [{"measurement": "dexamethasone release profile (cumulative drug release)", "setting": "heat-molded pellets ~1 mm×1 mm", "result": "zero-order (e.g., near zero order) release"}, {"measurement": "duration of zero-order release", "setting": "heat-molded pellets", "result": "at least 100 days"}]}
